Measurements from patent publication US20070009571A1, “Novel haptotactic peptides” (Hadasit Medical Research Services & Development Ltd., priority 1998, published 2007).
No end group written: not given here.

Legend:
Type in all cases: cell-based
[1] = tested on: normal murine fibroblasts (MF); test: Haptotaxis assay: attachment of ligand-coated SB to cultured cells; details: for % Binding of peptide-coated SB to normal cultured cells: percentage of SB-ligand attached to cells by day 4
Method: (§1) Peptides or fibrinogen were covalently bound to CNBr activated sepharose beads (SB) (Pharmacia, Piscataway, N.J.) using techniques previously used to bind albumin, fibrinogen and thrombin. Briefly, CNBr-activated sepharose 4B (Pharmacia) was washed with 1N HCl, and suspended in the coupling buffer (pH 8.3), following the protocol supplied by the manufacturer. The peptides were dialyzed against the coupling buffer to remove Tris. Peptides (1 mg) were not highly water soluble. The peptides were dissolved in 1 mL 70% ethanol or dimethylformamide, and were then mixed into the coupling buffer containing 1 mL CNBr-activated sepharose. The suspension was gently agitated overnight, then centrifuged 500×g to pack the beads. This procedure covalently binds more than 95% of proteins or peptides including fibrinogen or peptides-CαE (SEQ ID NO:3), Cβ (SEQ ID NO:1) and preCγ (SEQ ID NO:2) to the beads determined by Abs280 readings of the solutions.
(§2) The migratory/adhesion response of cells to proteins (such as fibrinogen) or peptides covalently bound to SB was measured as follows. Cells were grown in 6 or 12 well plates to near confluence or in suspension until they covered about ½ to ⅔ of the plate surface. At that point, about […] of a suspension containing 50% v/v SB coated with the test protein or peptide were added to the plate and dispersed by gentle shaking for 1 min. The plate was then returned to the incubator and examined at different times by inverted phase microscopy.
(§3) The SB (naked or ligand bound) sedimented onto the nearly confluent cell layer and occasionally made physical contact with cell membranes on the plate (ascribed to Brownian motion or micro-convection currents). […] Typically, 300 beads (but not less then 200) were counted in each well and the ratio of SB bound to the cells relative to total number SB could be calculated (SB bound/SB total). Counting the percentage of SB attached to the cell surface at different time intervals provided a quantitative assay of the kinetics of the attachment of coated beads to cells. Negative control with uncoated SB or positive controls with SB-fibrinogen were employed with at least 3 wells measured for each. The statistical error was calculated from the square root of the total counts.
(§4) The peptides of the present invention were synthesized and tested in cell culture systems as described above. Essentially, peptides were covalently attached to sepharose beads to form SB-Cα (SEQ ID NO:4), SB-Cβ (SEQ ID NO:1), SB-PreCγ (SEQ ID NO:2), SB-Cγ (SEQ ID NO:5) and SB-CαE (SEQ ID NO:3), respectively, as was fibrinogen to form SB-Fib. The SB-peptide combination was then incubated with cultured cells. […] The haptotactic potency of the peptides is summarized in Table 3 with the percentage of SB-Fib/peptide attached to cells (by day 4) given in columns 2-5 of Table 3.

[2] = tested on: murine mammary adenocarcinoma cells (EMT-6); test: as above; details: for % Binding of peptide-coated SB to normal cultured cells: percentage of SB-ligand attached to cells by day 4
Method: as §1, §2, §3, §4

[3] = tested on: human ovarian carcinoma cells (OV-1063); test: as above; details: percentage of SB-ligand attached to cells by day 4
Method: as §1, §2, §3, §4

[4] = tested on: bovine aortic endothelial cells (EC, BAEC); test: as above; details: for % Binding of peptide-coated SB to normal cultured cells: percentage of SB-ligand attached to cells by day 4
Method: as §1, §2, §3, §4

[5] = tested on: normal human keratinocytes; test: as above; details: Keratinocyte; percentage of SB-ligand attached to cells by day 4
Method: as §1, §2, §3, §4

[6] = tested on: porcine smooth muscle cells (SMC); test: as above; details: for % Binding of peptide-coated SB to normal cultured cells: percentage of SB-ligand attached to cells by day 4
Method: as §1, §2, §3, §4

[7] = tested on: tested cell lines; test: Haptotaxis assay, statements over the tested cell lines; details: ligands covalently bound to SB; for haptotactic response / cell binding to SB-ligand, in words: near confluent cell cultures
Method: as §1, §2, §3, §4

[8] = tested on: normal human skin fibroblasts (HF); test: Haptotaxis assay: attachment of ligand-coated sepharose beads (SB) to cultured cells; details: for % Binding of peptide-coated SB to normal cultured cells: percentage of SB-ligand attached to cells by day 4
Method: as §1, §2, §3, §4

SB-CαE: peptide-CαE (SEQ ID NO:3) covalently attached to sepharose beads (RGADYSLRAVRMKIRPLVTQ; also: attached to sepharose beads)
cell binding to SB-ligand, in words [1]: strong binding
% Binding of peptide-coated SB to normal cultured cells [1]: 61%
cell binding to SB-ligand, in words [2]: strong binding
% Binding of peptide-coated SB to normal cultured cells [2]: 64%
% Binding of peptide-coated SB to normal cultured cells [3]: 0%
cell binding / haptotactic response to SB-ligand, in words [4]: strong binding
% Binding of peptide-coated SB to normal cultured cells [4]: 43%
% Binding of peptide-coated SB to normal cultured cells [5]: 0%
cell binding to SB-ligand, in words [6]: Weak attachment
% Binding of peptide-coated SB to normal cultured cells [6]: 8%
cell lines excepted from binding to SB-ligand (all other tested lines bound) [7]: with the exception of OV-1063, keratinocytes and cells derived from a leucocytic lineage
number of cell lines bound by SB-ligand out of 7 tested [7]: 5
haptotactic response / cell binding to SB-ligand, in words [7]: next most potent
cell binding to SB-ligand, in words [8]: strong binding
% Binding of peptide-coated SB to normal cultured cells [8]: 52%

SB-Cβ: peptide-Cβ (SEQ ID NO:1) covalently attached to sepharose beads (KGSWYSMRKMSMKIRPFFPQQ; also: attached to sepharose beads)
% Binding of peptide-coated SB to normal cultured cells [1]: 89%
% Binding of peptide-coated SB to normal cultured cells [2]: 99%
% Binding of peptide-coated SB to normal cultured cells [3]: 4%
% Binding of peptide-coated SB to normal cultured cells [4]: 94%
% Binding of peptide-coated SB to normal cultured cells [5]: 0%
% Binding of peptide-coated SB to normal cultured cells [6]: 100%
cell lines excepted from binding to SB-ligand (all other tested lines bound) [7]: with the exception of OV-1063, keratinocytes and cells derived from a leucocytic lineage
number of cell lines bound by SB-ligand out of 7 tested [7]: 5
haptotactic response / cell binding to SB-ligand, in words [7]: most potent
% Binding of peptide-coated SB to normal cultured cells [8]: 100%

SB-Cα: peptide-Cα (SEQ ID NO:4) covalently attached to sepharose beads (EADHEGTHSTKRGHAKSRP; also: attached to sepharose beads) [reference compound]
% Binding of peptide-coated SB to normal cultured cells [1]: 0%
% Binding of peptide-coated SB to normal cultured cells [2]: 1%
% Binding of peptide-coated SB to normal cultured cells [3]: 0%
% Binding of peptide-coated SB to normal cultured cells [4]: 0%
% Binding of peptide-coated SB to normal cultured cells [5]: 0%
% Binding of peptide-coated SB to normal cultured cells [6]: 0%
number of cell lines bound by SB-ligand out of 7 tested [7]: none
haptotactic response / cell binding to SB-ligand, in words [7]: No cell binding
% Binding of peptide-coated SB to normal cultured cells [8]: 0%
